From patent US8466132B2, “Substituted tetracycline compounds” (Paratek Pharmaceuticals, Inc., priority 2004, dated 2013)

What was measured:
Assay type in all cases: cell-based
Set-up in all cases: key: Compounds which showed superior inhibition of S. aureus, S. pseumoniae and E. coli are indicated by “***,”; compounds which showed very good or good inhibition of S. aureus, S. pseumoniae and E. coli are indicated by “**” or “*” respectively; compounds which showed very good or good inhibition of S. aureus, S. pseumoniae and E. coli are indicated by “**” or “*” respectively
Settings in all cases: broth microdilution in CAMHB, 35° C., approximately 18 hour
S. pneumoniae 157E = test: In vitro minimum inhibitory concentration (MIC) assay, S. pneumoniae
Procedure: (§1) The following assay is used to determine the efficacy of the tetracycline compounds against common bacteria. 2 mg of each compound is dissolved in 100 μl of DMSO. The solution is then added to cation-adjusted Mueller Hinton broth (CAMHB), which results in a final compound concentration of 200 μg per ml. The tetracycline compound solutions are diluted to 50 μL volumes, with a test compound concentration of 0.098 μg/ml. Optical density (OD) determinations are made from fresh log-phase broth cultures of the test strains. Dilutions are made to achieve a final cell density of 1×10^6 CFU/ml. At OD=1, cell densities for different genera should be approximately:
(§2) 50 μl of the cell suspensions are added to each well of microtiter plates. The final cell density should be approximately 5×10^5 CFU/ml. These plates are incubated at 35° C. in an ambient air incubator for approximately 18 hour. The plates are read with a microplate reader and are visually inspected when necessary. The MIC is defined as the lowest concentration of the tetracycline compound that inhibits growth.
(§3) Table 3 gives the MIC (μg/mL) of selected substituted tetracycline compounds against S. aureus, S. pseuimoniae, and E. coli.

S. aureus RN450 = test: In vitro minimum inhibitory concentration (MIC) assay, S. aureus
Procedure: as §1, §2, §3

E. coli MG 1655 = test: In vitro minimum inhibitory concentration (MIC) assay, E. coli
Procedure: as §1, §2, §3

SMILES	Median MIC for S. pneumoniae 157E (S. pneumoniae 157E)	Median MIC for S. aureus RN450 (S. aureus RN450)	Median MIC for E. coli MG 1655 (E. coli MG 1655)
CN(C)c1cc(C(=O)NC(C)(C)C)c(O)c2c1C[C@H]1C[C@H]3[C@H](N(C)C)C(O)=C(C(N)=O)C(=O)[C@@]3(O)C(O)=C1C2=O	**	**	*
CC(=O)c1cccc(-c2cc(N(C)C)c3c(c2O)C(=O)C2=C(O)[C@]4(O)C(=O)C(C(N)=O)=C(O)[C@@H](N(C)C)[C@@H]4C[C@@H]2C3)c1	***	***	*
CN(C)c1cc(C#N)c(O)c2c1C[C@H]1C[C@H]3[C@@H](N(C)C)C(O)=C(C(N)=O)C(=O)C3(O)C(O)=C1C2=O (stereo partly drawn)	***	***	*
CN(C)c1cc(-c2cccc(C(=O)O)c2)c(O)c2c1C[C@H]1C[C@H]3[C@H](N(C)C)C(O)=C(C(N)=O)C(=O)[C@@]3(O)C(O)=C1C2=O	*	*	*
CNC(=O)c1cc(N(C)C)c2c(c1O)C(=O)C1=C(O)[C@]3(O)C(=O)C(C(N)=O)=C(O)[C@@H](N(C)C)[C@@H]3C[C@@H]1C2	*	*	*
CCONC(=O)c1cc(N(C)C)c2c(c1O)C(=O)C1=C(O)[C@]3(O)C(=O)C(C(N)=O)=C(O)[C@@H](N(C)C)[C@@H]3C[C@@H]1C2	***	*	*
CN(C)c1cc(C(=O)NCC(C)(C)C)c(O)c2c1C[C@H]1C[C@H]3[C@H](N(C)C)C(O)=C(C(N)=O)C(=O)[C@@]3(O)C(O)=C1C2=O	**	***	*
COC(=O)C#Cc1cc(N(C)C)c2c(c1O)C(=O)C1=C(O)[C@]3(O)C(=O)C(C(N)=O)=C(O)[C@H](N(C)C)[C@@H]3C[C@@H]1C2	***	***	*
COCC#Cc1cc(N(C)C)c2c(c1O)C(=O)C1=C(O)[C@]3(O)C(=O)C(C(N)=O)=C(O)[C@@H](N(C)C)[C@@H]3C[C@@H]1C2	***	***	*
CN(C)c1cc(C(=O)Nc2ccccc2)c(O)c2c1C[C@H]1C[C@H]3[C@H](N(C)C)C(O)=C(C(N)=O)C(=O)[C@@]3(O)C(O)=C1C2=O	***	***	*
CC(=O)Nc1ccc(-c2cc(N(C)C)c3c(c2O)C(=O)C2=C(O)[C@]4(O)C(=O)C(C(N)=O)=C(O)[C@@H](N(C)C)[C@@H]4C[C@@H]2C3)cn1	***	***	*
CN(C)c1ccc(-c2cc(N(C)C)c3c(c2O)C(=O)C2=C(O)[C@]4(O)C(=O)C(C(N)=O)=C(O)[C@@H](N(C)C)[C@@H]4C[C@@H]2C3)cc1	***	***	*
CN(C)c1cc(C(=O)N2CCCC2)c(O)c2c1C[C@H]1C[C@H]3[C@H](N(C)C)C(O)=C(C(N)=O)C(=O)[C@@]3(O)C(O)=C1C2=O	*	*	*
CN(C)c1cc(C#CC(=O)O)c(O)c2c1C[C@H]1C[C@H]3[C@@H](N(C)C)C(O)=C(C(N)=O)C(=O)[C@@]3(O)C(O)=C1C2=O	*	*	*
CONC(=O)c1cc(N(C)C)c2c(c1O)C(=O)C1=C(O)[C@]3(O)C(=O)C(C(N)=O)=C(O)[C@@H](N(C)C)[C@@H]3C[C@@H]1C2	*	*	*
CC(=O)NCCNC(=O)c1cc(N(C)C)c2c(c1O)C(=O)C1=C(O)[C@]3(O)C(=O)C(C(N)=O)=C(O)[C@@H](N(C)C)[C@@H]3C[C@@H]1C2	*	*	*

SMILES	Median MIC for S. pneumoniae 157E (S. pneumoniae 157E)	Median MIC for S. aureus RN450 (S. aureus RN450)	Median MIC for E. coli MG 1655 (E. coli MG 1655)
CN(C)c1cc(-c2ccncc2)c(O)c2c1C[C@H]1C[C@H]3[C@H](N(C)C)C(O)=C(C(N)=O)C(=O)[C@@]3(O)C(O)=C1C2=O	***	***	*
CCCNC(=O)c1cc(N(C)C)c2c(c1O)C(=O)C1=C(O)[C@]3(O)C(=O)C(C(N)=O)=C(O)[C@@H](N(C)C)[C@@H]3C[C@@H]1C2	*	*	*
CN(C)c1cc(-c2cnoc2)c(O)c2c1C[C@H]1C[C@H]3[C@H](N(C)C)C(O)=C(C(N)=O)C(=O)[C@@]3(O)C(O)=C1C2=O	***	***	*
CN(C)c1cc(C(=O)NCCO)c(O)c2c1C[C@H]1C[C@H]3[C@H](N(C)C)C(O)=C(C(N)=O)C(=O)[C@@]3(O)C(O)=C1C2=O	*	*	*
CN(C)c1cc(-c2nccs2)c(O)c2c1C[C@H]1C[C@H]3[C@H](N(C)C)C(O)=C(C(N)=O)C(=O)[C@@]3(O)C(O)=C1C2=O	**	***	*
CN(C)c1cc(C(=O)C(=O)O)c(O)c2c1C[C@H]1C[C@H]3[C@H](N(C)C)C(O)=C(C(N)=O)C(=O)[C@@]3(O)C(O)=C1C2=O	*	**	*
CN(C)c1cc(C(=O)N2CCCCC2)c(O)c2c1C[C@H]1C[C@H]3[C@H](N(C)C)C(O)=C(C(N)=O)C(=O)[C@@]3(O)C(O)=C1C2=O	*	*	*
CN(C)c1cccc(-c2cc(N(C)C)c3c(c2O)C(=O)C2=C(O)[C@]4(O)C(=O)C(C(N)=O)=C(O)[C@H](N(C)C)[C@@H]4C[C@@H]2C3)c1	***	***	*
CN(C)c1cc(-c2ccc(C(N)=O)cc2)c(O)c2c1C[C@H]1C[C@H]3[C@H](N(C)C)C(O)=C(C(N)=O)C(=O)[C@@]3(O)C(O)=C1C2=O	**	*	*
CC(=O)c1cc(N(C)C)c2c(c1O)C(=O)C1=C(O)[C@]3(O)C(=O)C(C(N)=O)=C(O)[C@H](N(C)C)[C@@H]3C[C@@H]1C2	*	*	*
CN(C)c1cc(-c2cncnc2)c(O)c2c1C[C@H]1C[C@H]3[C@H](N(C)C)C(O)=C(C(N)=O)C(=O)[C@@]3(O)C(O)=C1C2=O	***	***	*
CN(C)c1cc(-c2cnccn2)c(O)c2c1C[C@H]1C[C@H]3[C@H](N(C)C)C(O)=C(C(N)=O)C(=O)[C@@]3(O)C(O)=C1C2=O	***	***	*
COCCN(C)C(=O)c1cc(N(C)C)c2c(c1O)C(=O)C1=C(O)[C@]3(O)C(=O)C(C(N)=O)=C(O)[C@@H](N(C)C)[C@@H]3C[C@@H]1C2	*	*	*
CN(C)c1cc(-c2cccnc2)c(O)c2c1C[C@H]1C[C@H]3[C@H](N(C)C)C(O)=C(C(N)=O)C(=O)[C@@]3(O)C(O)=C1C2=O	**	**	*
CN(C)c1cc(-c2ncccn2)c(O)c2c1C[C@H]1C[C@H]3[C@H](N(C)C)C(O)=C(C(N)=O)C(=O)[C@@]3(O)C(O)=C1C2=O	**	***	*
CCC(=O)c1cc(N(C)C)c2c(c1O)C(=O)C1=C(O)[C@]3(O)C(=O)C(C(N)=O)=C(O)[C@@H](N(C)C)[C@@H]3C[C@@H]1C2	***	***	*
